In patent US9119398B2, “Plant growth regulating compounds” (Syngenta Participations AG, priority 2012, dated 2015):
Values joined by “and” are separate entries in the source; they are usually repeats but may differ in a detail not shown here. Equal entries are not always repeated.

Key:
[1] = test system: Orobanche cumana Wallr. seeds; assay: Germination of preconditioned Orobanche cumana seeds on glass fiber filter paper in petri dishes; format: in vivo; conditions: mean, N = 5 × 100 seeds, seed lot IN153
Description: The effect of compounds of Formula (I) on germination of Orobanche cumana Wallr. seeds was evaluated on glass fiber filter paper (GFFP) in petri dishes. Seeds were preconditioned at moisture and suitable temperature to become responsive to the specific chemical germination stimulants.
Test compounds were dissolved in DMSO (10 000 mg l^−1) and stored at room temperature in a desiccators with desiccants. The stock solutions were dissolved with deionised water to the appropriate final test concentration.
Seeds of O. cumana race ‘F’ (IN153) were collected from a sunflower field in Manzanilla (Seville, Spain) in 2006 and stored at room temperature. To separate seeds from heavy organic debris, a modified sucrose floatation technique as described by Hartman & Tanimonure (Plant Disease (1991), 75, p. 494) was applied. Seeds were filled into a separation funnel and stirred in water. When seeds floated to the surface, the water fraction containing heavy debris was discarded. Seeds were re-suspended in 2.5M sucrose solution (specific gravity of 1.20) and heavy debris was allowed to settle down for 60 min After removing debris, seeds were disinfected in 1% sodium hypochlorite solution and 0.025% (v/v) Tween 20 for 2 min. The seeds were decanted onto two layers of cheesecloth, rinsed with sterile deionised water and re-suspended in sterile deionised water. Two ml of the seed suspension containing approximately 150-400 seeds were spread evenly on two layers of sterile glass fiber filter paper disc ([…]) in Petri dishes (Ø9 cm). After wetting the discs with 3 ml sterile deionised water, petri dishes were sealed with parafilm. Seeds were incubated for 10 days at 20° C. in the dark for seed conditioning. The upper disc with conditioned seeds was briefly dried, transferred to a petri dish lined with a dry GFFP disc, and wetted with 6 ml of the appropriate test solution. The compounds of Formula (I) were tested at concentrations of 0.001, 0.01, 0.1, or 1 mg l^−. The strigolactone analogue GR24 was included as positive control and 0.01% DMSO as negative control. All treatments were tested in five replicates. Seeds were re-incubated at 20° C. in the dark and examined for germination 10 days later. The radicles of germinated seeds were stained for 5 min with blue ink (MIGROS, Switzerland) in 5% acetic acid according to Long et al. (Seed Science Research (2008), 18, p. 125). After staining, seeds were photographed using a camera stand mounted with a digital SLR camera (Canon EOS 5D). Germination of 100 seeds per replicate was evaluated on digital images. Seeds were considered germinated when the radicle protruded from the seed coat.

[2] = test system: Brassica oleracea cv Botrytis (temperate cauliflower) seeds; assay: Paper germination test, temperate cauliflower seeds, 10° C. in the light; format: in vivo; conditions: 25 μM, sets A and B separate experiments
Description: The effect of compounds of Formula (I) on the germination of Brassica oleracea cv Botrytis or common cauliflower was tested on two types of cauliflowers: temperate types and tropical types. These two types were chosen because they display different sensitivities to the light conditions and temperature during germination. Germination of a sensitive temperate type is inhibited by light at 10° C. while for the tropical types germination at 20° is stimulated by the presence of light.
The temperate seed batches tested are part of commercially produced seed batches of various varieties which are known to be sensitive to light at 10° C. These seeds were harvested and cleaned according standard commercial procedures. Ready seed batches were used (Ready indicates the processing level of these seeds: they have been cleaned and sized but received no other treatments). The tropical seed batches tested are part of seed batches produced as basic seed (for maintenance of the parental line) and were processed accordingly.
Germination was assessed using the standard paper germination test for Brassica: Fifty seeds were placed on blue germination paper, which was moistened with the appropriate solutions, in closed oblong germination boxes. Each condition was tested in duplo. Germination boxes were placed in controlled germination cabinets with the appropriate temperature and light conditions. Germination of seeds was counted at regular intervals. Seeds were considered to be germinated when the radical had protruded the testa and endosperm (radical size approximately 1 mm)
Test compounds were dissolved in DMSO at a concentration of 50 mM and stored at −20° C. The strigolactone analogue GR24 (commercially available as a racemic mixture of 2 diastereoisomers, referred to as “synthetic strigolactone GR-24” and first prepared by Johnson A. W. & all, Journal of the Chemical Society, Perkin Transactions 1, 1981, page 1734-1743) was included as positive control. Germination solutions were prepared by diluting the stock solutions with demineralized water till 25 μM. As control solutions demineralized water and a 0.05% v/v DMSO solution were used.

[3] = Table B1, concentration 0.001 mg 1^−1, DMSO control 0.4% germination
[4] = Table B1, concentration 0.1 mg 1^−1, DMSO control 0.4% germination
[5] = Table B1, concentration 1 mg 1^−1, DMSO control 0.4% germination
[6] = temperate cauliflower Spacestar seed batch 11B313 (cold-sensitive)
[7] = temperate cauliflower Spacestar seed batch 11B314 (not cold sensitive)

CC1=CC(O/C=C2/C(=O)NC3C=CCC23)OC1=O (centres unmarked) [Ia-1, (3E)-3-[(4-methyl-5-oxo-2H-furan-2-yl)oxymethylene]-1,3a,4,6a-tetrahydrocyclopenta[b]pyrrol-2-one]
Germination (%) [1, 3]: 1.4% | Germination (%) [1, 4]: 24.6% | Germination (%) [1, 5]: 23.2% | Gmax (%), total germination as percentage of sown seeds [2, 6]: 72.0% | stimulation (%), extra germination compared to the DMSO treatment, as percentage of the germination in the DMSO treatment [2, 6]: 20.0% | Gmax (%), total germination as percentage of sown seeds [2, 7]: 96.5% | stimulation (%), extra germination compared to the DMSO treatment, as percentage of the germination in the DMSO treatment [2, 7]: 6.6%

CC1=C[C@H](O/C=C2/C(=O)O[C@@H]3c4ccccc4C[C@H]23)OC1=O (mixture of isomers) [GR-24, reference compound]
Germination (%) ([1]; Concentration 0.01 mg l^-1, 10 days at 20° C. in the dark): 88% | Germination (%) ([1]; Concentration 0.01 mg l^-1 as printed, 10 days at 20° C. in the dark): 86.6% | Germination (%) ([1]; Concentration 1 mg l^-1, 10 days at 20° C. in the dark): 95.2% | Germination (%) [1, 3]: 24.8% | Germination (%) [1, 4]: 47.2% | Germination (%) [1, 5]: 80.2% | Germination (%) ([1]; Table B2, concentration 0.01 mg 1^−1, DMSO control 2.4% germination): 12.2% | Germination (%) ([1]; Table B2, concentration 0.1 mg 1^−1, DMSO control 2.4% germination): 46.4% | Germination (%) ([1]; Table B2, concentration 1 mg 1^−1, DMSO control 2.4% germination): 85.2% | Germination (%) ([1]; Table B3, concentration 0.001 mg 1^−1, DMSO control 0% germination): 26% | Germination (%) ([1]; Table B3, concentration 0.01 mg 1^−1, DMSO control 0% germination): 51% | Germination (%) ([1]; Table B3, concentration 0.1 mg 1^−1, DMSO control 0% germination): 84.2% | Germination (%) ([1]; Table B5, concentration 0.01 mg 1^−1 (second column), DMSO control 1.4% germination): 78.4% | Germination (%) ([1]; Table B5, concentration 0.01 mg 1^−1 (third column), DMSO control 1.4% germination): 65% | Germination (%) ([1]; Table B5, concentration 1 mg 1^−1, DMSO control 1.4% germination): 86.6% | Germination (%) ([1]; Table B6, concentration 0.001 mg 1^−1, DMSO control 2.4% germination): 23.0% | Germination (%) ([1]; Table B6, concentration 0.1 mg 1^−1, DMSO control 2.4% germination): 43.2% | Germination (%) ([1]; Table B6, concentration 1 mg 1^−1, DMSO control 2.4% germination): 58.1% | Gmax (%), total germination as percentage of sown seeds [2, 6]: 71.5% and 80.0% | Gmax (%), total germination as percentage of sown seeds [2, 7]: 93.5% and 93.0% | stimulation (%), extra germination compared to the DMSO treatment, as percentage of the germination in the DMSO treatment [2, 7]: 3.3% and 8.1%

CC1=CC(O/C=C2\CCCCN(c3ccccc3)C2=O)OC1=O (centres unmarked) [Ic-13, (3E)-3-[(4-methyl-5-oxo-2H-furan-2-yl)oxymethylene]-1-phenyl-azepan-2-one]
melting point: 150 to 160 °C
